Measured values reported in ChEMBL document CHEMBL1201862, “PubChem BioAssay data set” (2004).
The source made the active and inactive calls.

Experiments:
[1] = target: T1, Sphingosine 1-phosphate receptor 4 (Homo sapiens, UniProt O95977); assay: Late-stage fluorescence dose response cell-based assay to identify agonists of the Sphingosine 1-Phosphate Receptor 4 (S1P4): purchased compounds EC50. [Related pubchem assays (depositor defined):AID1509, AID1523, AID1563, AID1686, AID1701, AID1801]; format: functional
T1 sequence (O95977 whole entry): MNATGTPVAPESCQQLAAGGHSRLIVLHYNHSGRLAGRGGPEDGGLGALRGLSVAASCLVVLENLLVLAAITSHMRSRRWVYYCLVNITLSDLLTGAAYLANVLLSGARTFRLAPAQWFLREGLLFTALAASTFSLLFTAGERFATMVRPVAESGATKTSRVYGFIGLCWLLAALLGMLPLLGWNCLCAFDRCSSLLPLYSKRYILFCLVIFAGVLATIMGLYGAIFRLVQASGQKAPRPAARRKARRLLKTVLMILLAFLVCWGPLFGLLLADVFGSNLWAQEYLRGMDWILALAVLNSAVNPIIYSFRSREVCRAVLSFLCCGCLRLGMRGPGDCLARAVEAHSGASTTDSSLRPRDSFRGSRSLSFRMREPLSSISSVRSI

Hexokinase HKDC1 = target: T2, Hexokinase HKDC1 (Homo sapiens, UniProt Q2TB90); assay: HKDC1 hexokinase activators, dose response, biochemical, W721R variant (AID 504730); format: functional
T2 sequence (Q2TB90 whole entry): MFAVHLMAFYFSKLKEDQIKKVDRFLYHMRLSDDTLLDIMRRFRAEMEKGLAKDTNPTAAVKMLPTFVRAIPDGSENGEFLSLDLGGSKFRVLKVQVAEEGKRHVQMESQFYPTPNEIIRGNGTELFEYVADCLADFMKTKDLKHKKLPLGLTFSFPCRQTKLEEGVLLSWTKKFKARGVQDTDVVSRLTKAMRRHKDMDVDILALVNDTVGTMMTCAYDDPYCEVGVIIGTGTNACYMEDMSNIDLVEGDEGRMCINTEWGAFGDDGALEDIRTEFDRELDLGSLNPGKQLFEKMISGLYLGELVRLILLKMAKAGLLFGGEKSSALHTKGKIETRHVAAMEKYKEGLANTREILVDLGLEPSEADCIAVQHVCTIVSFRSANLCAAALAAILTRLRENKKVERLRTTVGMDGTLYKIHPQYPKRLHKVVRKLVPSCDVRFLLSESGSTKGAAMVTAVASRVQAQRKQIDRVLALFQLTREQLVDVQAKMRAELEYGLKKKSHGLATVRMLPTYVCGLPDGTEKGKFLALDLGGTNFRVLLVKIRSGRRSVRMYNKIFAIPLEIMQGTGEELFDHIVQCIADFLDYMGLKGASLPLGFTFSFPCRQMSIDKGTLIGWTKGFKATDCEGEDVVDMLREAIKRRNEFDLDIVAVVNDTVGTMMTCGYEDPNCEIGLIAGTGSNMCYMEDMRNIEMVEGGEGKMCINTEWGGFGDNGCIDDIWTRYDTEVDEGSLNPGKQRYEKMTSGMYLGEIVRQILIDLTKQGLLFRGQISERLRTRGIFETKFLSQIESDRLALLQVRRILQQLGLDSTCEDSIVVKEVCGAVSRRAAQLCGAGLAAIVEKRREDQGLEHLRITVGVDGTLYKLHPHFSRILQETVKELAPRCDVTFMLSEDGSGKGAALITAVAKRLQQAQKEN

Hexokinase-1 = Hexokinase-1 (Homo sapiens, UniProt P19367); assay: hexokinase 1 activators, dose response, selectivity assay for HKDC1 activator project, biochemical (AID 504762); format: functional
Chain of Hexokinase-1 (P19367 whole entry, the tested form may be a part): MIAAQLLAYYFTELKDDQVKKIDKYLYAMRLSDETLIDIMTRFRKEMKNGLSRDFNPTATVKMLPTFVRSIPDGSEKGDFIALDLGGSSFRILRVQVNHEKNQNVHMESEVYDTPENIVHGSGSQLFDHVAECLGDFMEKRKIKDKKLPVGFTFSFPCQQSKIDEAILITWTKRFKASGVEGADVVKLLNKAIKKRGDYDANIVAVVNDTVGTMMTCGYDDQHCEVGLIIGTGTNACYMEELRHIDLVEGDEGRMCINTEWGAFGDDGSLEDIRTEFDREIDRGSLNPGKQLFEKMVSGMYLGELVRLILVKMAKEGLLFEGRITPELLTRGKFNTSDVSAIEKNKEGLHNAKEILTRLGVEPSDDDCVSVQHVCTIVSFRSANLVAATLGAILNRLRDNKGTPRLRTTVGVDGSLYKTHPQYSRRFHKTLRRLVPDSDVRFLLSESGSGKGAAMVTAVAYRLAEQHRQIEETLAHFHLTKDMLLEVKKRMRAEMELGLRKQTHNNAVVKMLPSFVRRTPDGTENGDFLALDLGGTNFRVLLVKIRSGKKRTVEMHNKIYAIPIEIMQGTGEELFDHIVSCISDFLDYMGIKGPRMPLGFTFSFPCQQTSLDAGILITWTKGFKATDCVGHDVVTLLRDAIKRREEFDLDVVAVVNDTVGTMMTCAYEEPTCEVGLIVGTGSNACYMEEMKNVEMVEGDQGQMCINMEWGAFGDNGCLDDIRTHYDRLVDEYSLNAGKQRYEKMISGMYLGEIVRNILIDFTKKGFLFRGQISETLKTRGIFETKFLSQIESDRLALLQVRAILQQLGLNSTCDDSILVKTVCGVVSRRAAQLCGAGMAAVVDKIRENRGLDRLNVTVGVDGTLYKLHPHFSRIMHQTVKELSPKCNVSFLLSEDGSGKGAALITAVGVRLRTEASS

[2] = target: T3, Runt-related transcription factor 1/Core-binding factor subunit beta (Homo sapiens, UniProt Q01196+Q13951); assay: inhibitors of RUNX1 Runt–CBFb-SMMHC binding, primary screen, biochemical, FRET, Cerulean-Runt, Venus-CBFb-SMMHC, uHTS (AID 1434); format: protein assay;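 note: partner is the CBFb-SMMHC leukemia fusion protein rather than wild-type CBFb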
T3 sequence (Q01196 whole entry, the tested form may be a part): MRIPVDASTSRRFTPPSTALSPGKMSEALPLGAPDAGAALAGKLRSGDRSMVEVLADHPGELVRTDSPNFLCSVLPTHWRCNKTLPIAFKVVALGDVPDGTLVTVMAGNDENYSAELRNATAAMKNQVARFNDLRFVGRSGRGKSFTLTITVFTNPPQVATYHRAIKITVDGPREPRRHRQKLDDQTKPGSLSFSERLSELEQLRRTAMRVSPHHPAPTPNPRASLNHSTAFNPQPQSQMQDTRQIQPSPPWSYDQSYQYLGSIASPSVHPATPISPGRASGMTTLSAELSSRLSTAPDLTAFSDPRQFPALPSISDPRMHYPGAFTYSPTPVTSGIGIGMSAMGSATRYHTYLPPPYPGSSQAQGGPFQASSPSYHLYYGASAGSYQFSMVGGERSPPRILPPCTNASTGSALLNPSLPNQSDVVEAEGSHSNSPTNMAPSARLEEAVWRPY
T3 sequence (Q13951 whole entry, the tested form may be a part): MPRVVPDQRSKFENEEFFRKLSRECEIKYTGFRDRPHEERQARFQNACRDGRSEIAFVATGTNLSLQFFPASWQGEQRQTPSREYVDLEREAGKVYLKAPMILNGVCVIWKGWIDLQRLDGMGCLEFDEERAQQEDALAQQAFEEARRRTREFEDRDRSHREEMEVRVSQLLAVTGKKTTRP

[3] = target: T3, Runt-related transcription factor 1/Core-binding factor subunit beta; assay: inhibitors of RUNX1 Runt–CBFb-SMMHC binding, biochemical, TR-FRET (AID 1438); format: protein assay
T-cell = assay: inhibitors of CD8+ T cell–vesicle binding, dose response, mouse 2C CD8+ T cells, flow cytometry (AID 485284); format: functional
[4] = target: T4, Heat shock factor protein 1 (Mus musculus, UniProt P38532); assay: HSF1 potentiators in luciferase reporter cells, confirmation, cell-based, NIH3T3, luminescence, dose retest (AID 435004); format: functional;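 note: stress induced by proteasome inhibitor MG132 added 30 min after compound; luciferase reporter driven by HSF1 response element in NIH3T3 cells; actives raise luminescence as potentiators of the MG132 stress response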
T4 sequence (P38532 whole entry): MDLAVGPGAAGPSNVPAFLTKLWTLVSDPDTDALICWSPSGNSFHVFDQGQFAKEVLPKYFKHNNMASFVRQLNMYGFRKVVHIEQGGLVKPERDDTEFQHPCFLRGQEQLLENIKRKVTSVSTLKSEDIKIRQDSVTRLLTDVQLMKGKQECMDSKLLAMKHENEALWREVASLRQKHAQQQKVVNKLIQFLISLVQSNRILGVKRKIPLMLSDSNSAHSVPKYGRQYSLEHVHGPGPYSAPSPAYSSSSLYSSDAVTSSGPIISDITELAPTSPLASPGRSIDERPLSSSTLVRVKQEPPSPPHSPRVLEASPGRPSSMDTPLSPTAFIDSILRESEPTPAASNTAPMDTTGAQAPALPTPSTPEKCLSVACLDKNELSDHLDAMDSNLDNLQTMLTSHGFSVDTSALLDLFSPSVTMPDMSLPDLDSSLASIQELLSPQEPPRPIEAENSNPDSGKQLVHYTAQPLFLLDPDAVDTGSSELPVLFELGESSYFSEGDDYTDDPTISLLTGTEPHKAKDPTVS

cells = format: functional
[5] = Vero E6 cell cytotoxicity, dose response, cytotoxicity control for non-replicating M. tuberculosis project, secondary assay (AID 492998); format: functional, VeroE6; conditions: Vero C1008
[6] = target: T5, Replicative DNA helicase DnaB (Mycobacterium tuberculosis, UniProt P9WMR3); assay: DnaB intein splicing inhibitors, dose response, biochemical, cell-free fluorescence (AID 449749); format: functional
T5 sequence (P9WMR3 whole entry): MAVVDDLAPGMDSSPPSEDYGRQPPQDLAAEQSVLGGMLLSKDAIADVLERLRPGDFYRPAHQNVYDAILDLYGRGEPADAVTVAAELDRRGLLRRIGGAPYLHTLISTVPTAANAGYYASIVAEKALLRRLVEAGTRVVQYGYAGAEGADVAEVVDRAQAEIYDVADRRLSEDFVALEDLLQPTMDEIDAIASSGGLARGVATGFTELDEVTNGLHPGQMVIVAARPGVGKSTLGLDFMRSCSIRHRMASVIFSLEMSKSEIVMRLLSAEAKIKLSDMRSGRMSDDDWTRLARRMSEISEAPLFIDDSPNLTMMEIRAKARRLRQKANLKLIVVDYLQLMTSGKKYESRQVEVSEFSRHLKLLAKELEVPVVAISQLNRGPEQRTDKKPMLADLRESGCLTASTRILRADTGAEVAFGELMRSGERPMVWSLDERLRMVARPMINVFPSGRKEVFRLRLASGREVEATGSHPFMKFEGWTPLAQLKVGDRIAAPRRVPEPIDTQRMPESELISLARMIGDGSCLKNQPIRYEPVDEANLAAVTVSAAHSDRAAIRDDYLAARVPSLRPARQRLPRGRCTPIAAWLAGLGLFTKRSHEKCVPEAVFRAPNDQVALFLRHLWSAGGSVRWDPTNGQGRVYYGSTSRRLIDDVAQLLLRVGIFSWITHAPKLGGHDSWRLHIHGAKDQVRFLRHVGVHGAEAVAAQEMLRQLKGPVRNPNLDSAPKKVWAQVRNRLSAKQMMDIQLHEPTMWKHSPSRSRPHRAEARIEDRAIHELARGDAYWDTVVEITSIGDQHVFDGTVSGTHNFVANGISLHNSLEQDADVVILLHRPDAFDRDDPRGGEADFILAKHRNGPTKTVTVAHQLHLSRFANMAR

[7] = THP-1 cell cytotoxicity, dose response, cytotoxicity control for non-replicating M. tuberculosis project (AID 489025); format: functional
[8] = microbe, parasite or virus in culture; format: functional; conditions: Mycobacterium tuberculosis
[9] = target: T6, Microphthalmia-associated transcription factor (Homo sapiens, UniProt O75030); assay: TRPM1 promoter luciferase signal decrease, dose response, MITF inhibitor project, cell-based, SK-MEL-5, cherry-picked, set 3 (AID 493073); format: functional
T6 sequence (O75030 whole entry): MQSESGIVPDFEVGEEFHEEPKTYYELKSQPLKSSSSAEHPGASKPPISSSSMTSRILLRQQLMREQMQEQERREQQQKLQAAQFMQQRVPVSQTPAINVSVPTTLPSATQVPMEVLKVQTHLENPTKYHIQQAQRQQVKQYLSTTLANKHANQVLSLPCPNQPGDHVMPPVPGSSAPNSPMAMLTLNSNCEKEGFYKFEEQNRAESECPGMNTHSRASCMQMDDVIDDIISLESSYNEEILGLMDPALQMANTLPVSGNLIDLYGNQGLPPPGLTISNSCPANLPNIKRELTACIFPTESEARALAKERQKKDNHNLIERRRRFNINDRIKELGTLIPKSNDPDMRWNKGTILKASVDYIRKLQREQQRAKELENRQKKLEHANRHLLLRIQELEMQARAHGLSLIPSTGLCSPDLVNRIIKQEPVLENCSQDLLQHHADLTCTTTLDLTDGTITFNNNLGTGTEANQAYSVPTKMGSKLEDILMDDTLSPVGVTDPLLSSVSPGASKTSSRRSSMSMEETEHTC

Protein RecA = target: T7, Protein RecA (Mycobacterium tuberculosis, UniProt P9WHJ3); assay: Fluorescence Cell-Free Homogeneous Dose Retest to Identify Inhibitors of RecA-Intein Splicing Activity. [Related pubchem assays (depositor defined):AID2097, AID2223, AID489010, AID492950]; format: functional
T7 sequence (P9WHJ3 whole entry): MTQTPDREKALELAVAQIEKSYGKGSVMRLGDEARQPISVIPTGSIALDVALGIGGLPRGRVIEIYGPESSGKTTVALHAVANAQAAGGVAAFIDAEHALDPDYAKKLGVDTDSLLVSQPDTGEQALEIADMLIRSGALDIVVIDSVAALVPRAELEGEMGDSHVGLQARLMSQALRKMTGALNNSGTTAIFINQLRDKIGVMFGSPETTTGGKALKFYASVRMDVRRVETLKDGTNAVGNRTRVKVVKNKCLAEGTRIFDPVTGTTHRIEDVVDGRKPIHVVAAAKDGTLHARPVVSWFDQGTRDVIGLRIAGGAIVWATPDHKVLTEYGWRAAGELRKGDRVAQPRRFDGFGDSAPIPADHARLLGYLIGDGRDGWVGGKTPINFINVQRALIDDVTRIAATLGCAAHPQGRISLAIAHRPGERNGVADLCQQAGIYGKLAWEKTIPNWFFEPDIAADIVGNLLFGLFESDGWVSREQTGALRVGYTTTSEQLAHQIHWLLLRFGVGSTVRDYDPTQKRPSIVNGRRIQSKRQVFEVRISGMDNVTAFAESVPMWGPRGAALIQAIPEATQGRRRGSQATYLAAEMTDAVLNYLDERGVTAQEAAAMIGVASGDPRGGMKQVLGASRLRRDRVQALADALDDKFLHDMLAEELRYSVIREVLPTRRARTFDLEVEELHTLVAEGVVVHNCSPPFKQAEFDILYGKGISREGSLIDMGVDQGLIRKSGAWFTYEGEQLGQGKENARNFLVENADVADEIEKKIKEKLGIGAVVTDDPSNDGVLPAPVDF

Structure (SMILES): Cc1nn(Cc2ccccc2)c(Cl)c1C(=O)OC(C)C(=O)NCc1ccccc1 (centres undefined)
- EC50 [1]: > 50 µM (inactive)

Structure (SMILES): COc1ccccc1C1=NN=C(Nc2cccc(S(=O)(=O)N(C)C)c2)SC1
- EC50 (Hexokinase HKDC1): 19.5 µM (active)
- EC50 (Hexokinase-1): 20.1 µM (inactive)

Structure (SMILES): CCOC(=O)N1CCC(NC(=O)c2ccc3c(c2)N(C)CCS3)CC1
- IC50 [2]: > 100 µM (inactive)
- IC50 [3]: > 100 µM (inactive)

Structure (SMILES): Cc1ccc(S(=O)(=O)N2CCC(NC(=O)c3ccccc3)CC2)cc1
- EC50 (T-cell): 7.83 µM (active)

Structure (SMILES): COC(=O)c1ccc2c(c1O)C(=O)c1ccccc1C2=O
- EC50 [4]: 3.73 µM (active)
- IC50 (cells): 4.52 µM (active)
- CC50 [5]: > 20 µM (active)
- AC50 [6]: 51.4 µM (active)
- CC50 [7]: > 40 µM (active)
- CC50 [8]: 24.2 µM (active)
- AC50 [9]: 1.61 µM (active)
- EC50 (Protein RecA): 925 nM (active)
